{"source": "paper PMC11259557", "about": "(Cancer Medicine, 2024)", "origin": "cited, not measured here", "key": {"[1]": {"parameters": "method as in PMID 26337806, PMID 27196567"}}, "note": "Like-named read-outs stand apart in the source and are kept apart here."}
{"smiles": "CC(C)C[C@H](NC(=O)[C@@H](NC(=O)c1cccc(-c2ccccc2)n1)[C@@H](C)O)B(O)O", "note": "[delanzomib]", "values": [{"measurement": "incidence of grade ≥3 diarrhea", "result": 19, "unit": "%"}, {"measurement": "incidence of peripheral neuropathy", "result": 21, "unit": "%"}]}
{"smiles": "CC(C)C[C@H](NC(=O)[C@H](CCc1ccccc1)NC(=O)CN1CCOCC1)C(=O)N[C@@H](Cc1ccccc1)C(=O)N[C@@H](CC(C)C)C(=O)[C@@]1(C)CO1", "note": "[carfilzomib]", "values": [{"measurement": "DCR", "setting": "multiple myeloma; phase I trial", "result": 39, "unit": "%"}]}
{"smiles": "CC(C)C[C@H](NC(=O)CNC(=O)c1cc(Cl)ccc1Cl)B(O)O", "note": "[ixazomib]", "values": [{"measurement": "incidence of decreased platelet counts", "result": 43, "unit": "%"}, {"measurement": "peripheral neuropathy, any grade", "setting": "patients", "result": 27, "unit": "%"}, {"measurement": "peripheral neuropathy, grade 3", "setting": "patients", "result": 2, "unit": "%"}, {"measurement": "incidence of diarrhea", "setting": "phase 1 study in RRMM", "result": 38, "unit": "%"}, {"measurement": "incidence of grade ≥3 diarrhea", "setting": "phase 1 study in RRMM", "result": 17, "unit": "%"}, {"measurement": "incidence of peripheral neuropathy", "setting": "phase 1 study in RRMM", "result": 20, "unit": "%"}, {"measurement": "rate of grade ≥3 AEs", "setting": "phase 1 study in RRMM", "result": 53, "unit": "%"}, {"measurement": "incidence of diarrhea", "setting": "real-world settings", "result": 26.2, "unit": "%"}, {"measurement": "incidence of peripheral neuropathy", "setting": "real-world settings", "result": 35, "unit": "%"}, {"measurement": "incidence of ≥grade 3 diarrhea", "setting": "real-world settings", "result": 13.9, "unit": "%"}, {"measurement": "incidence of ≥grade 3 peripheral neuropathy", "setting": "real-world settings", "result": 3, "unit": "%"}, {"measurement": "participants who discontinued due to AEs", "setting": "study by Kumar et al.", "result": 12, "unit": "%"}, {"measurement": "T max", "setting": "[1]", "result": "1 to 1.5", "unit": "h"}, {"measurement": "half-life", "setting": "[1]", "result": "140 to 150", "unit": "h"}, {"measurement": "DCR", "setting": "multiple myeloma; monotherapy", "result": 50, "unit": "%"}]}
{"smiles": "COC[C@H](NC(=O)c1cnc(C)s1)C(=O)N[C@@H](COC)C(=O)N[C@@H](Cc1ccccc1)C(=O)[C@@]1(C)CO1", "note": "[oprozomib]", "values": [{"measurement": "patients who experience diarrhea", "result": "Nearly all patients"}]}
